Usually IC50 stands for the concentration needed to halve the response being measured.

The source of these data is patent publication US5578639A, “PLA2 inhibitors and their use for inhibition of intestinal cholesterol absorption” (Warner-Lambert Company, priority 1995, dated 1996).

The test system of assay [1] is Caco-2 cells. The assay can be described thus: Caco-2 retinol absorption. The format is cell-based, human. The settings on record: 10 μM retinol; FIG. 6. The method, then: (§1) Caco-2 cells were used as a tissue culture model of the human intestinal epithelium to compare the effects of phosphatidylcholine and lysophosphatidylcholine on lipid absorption and the subsequent re-esterification and secretion of micelle-derived lipids.
The micelle preparations used in the experiments described for FIG. 4 also contained 10 μM retinol. Retinol was included to determine whether the influence of micellar phospholipid composition on cholesterol absorption extended to other fatty alcohols. Like cholesterol, retinol is a fatty alcohol that is absorbed from the diet by the intestinal epithelium and passed into the circulation by an analogous transport process involving fatty acylation and assembly of the resultant retinyl esters into chylomicrons (Blomhoff R., Green M. H., Berg T., Norum K. R., "Transport and storage of vitamin A." Science, 250:399-404 (1990)).

The subject of assay [2] is Caco-2 cells. Description: Caco-2 lipase studies. The format is cell-based, human. The protocol:
as §1
This was tested with the Caco-2 cells. Taurocholic acid micelles containing phosphatidylcholine, triolein, cholesteryl oleate and cholesterol were placed in the medium covering the apical surface of Caco-2 cell monolayers. Depending on the neutral lipid lipase being studied, either the triolein or cholesteryl oleate was tritium-labeled. The time course of radiolabeled lipid uptake and metabolism was studied in the absence or presence of the neutral lipid lipases, with or without PLA2. The results are in agreement with those presented by Borgstrom and coworkers. […] The results for micellar tri[^3 H]olein uptake indicated a similar but less severe dependence of triglyceride lipase activity on PLA2.

The subject of assay [3] is Caco-2 cells. The assay can be described thus: Caco-2 phospholipase A2-dependent cholesterol absorption, time course. The class given is cell-based, human. As to conditions: for suppression of cholesterol absorption by PC, effect of PLA2: porcine pancreatic PLA2, PC-containing micelles.
Another assay concerns cholesterol absorption. The assay can be described thus: Cholesterol-fed hamster model, plasma and liver cholesterol / cholesterol absorption. The class given is in vivo. As to conditions: FIG. 13. The text has this: Neomycin and β-sitosterol (Cytellin) have been used as cholesterol absorption inhibitors to treat hypercholesterolemic patients (Kesaniemi, et al., Serum cholesterol lowering by inhibition of cholesterol absorption, Atherosclerosis, VIII:791-794 (1989)). The mechanisms by which these agents inhibit intestinal cholesterol absorption are unknown. Relatively large doses must be administered (1.5-2 g/day neomycin, 3-50 g/day β-sitosterol) to achieve up to 25% reductions in serum cholesterol levels. The advantages of PLA2 inhibitors over these agents is that the mechanism of cholesterol absorption inhibition is known and sufficiently potent PLA2 inhibitors could be administered in much smaller doses (potentially fewer side effects and better patient compliance) to achieve greater reductions in serum cholesterol levels. For example, in a cholesterol-fed hamster model, administration of 100 mg/kg of the phospholipase A2 inhibitor methyl-[2-(hexadecyloxy)phenyl]methyl ester phosphonic acid (Compound D in FIG. 13) produced reductions in plasma and liver cholesterol levels nearly equivalent to those obtained with a ten-fold higher dose (i.e., 1000 mg/kg) of β-sitosterol. Pancreatic PLA2 inhibitors represent a significant advancement over current agents, the use of which has already proven cholesterol absorption inhibitors to be a beneficial and effective therapy for hypercholesterolemia.

Another assay concerns serum cholesterol. The settings on record: neomycin 1.5-2 g/day; β-sitosterol 3-50 g/day; cited from earlier work.
Assay [4] concerns intestinal lipid absorption. Description: Lymph-fistula rats, effect of PLA2 inhibitors on lymphatic lipid output. The format is in vivo, rat. As to conditions: FIGS. 10 and 11. The text has this: The intestinal lipid absorption pathway was isolated in the rat by inserting an infusion cannula in the proximal duodenum and implanting a second cannula in the mesenteric lymph vessel to intercept the lipoprotein output from the intestine. This lymph-fistula rat model was used to investigate the effect of pancreatic PLA2 inhibition, in situ, on intestinal absorption of infused lipid emulsions. In a typical experiment, cannulae were implanted the day before the experimental infusion. Following surgery, the animals were infused (2.5 mL/hr) with isotonic saline containing dextrose to flush the GI tract and obtain basal levels of lymphatic lipid output. On the day of the experiment, infusion of the dextrose recovery solution was continued for 1 hour to collect a basal lymph fraction. At the start of the next hour, the intake of the duodenal infusion cannula was switched to a lipid emulsion of isotonic saline containing safflower oil (59 mM), cholesterol (5.2 mM), PC (3.3 mM) and taurocholic acid (1.9 mM). One hour lymph fractions were collected until the end of the experiment. The lipid content (mass) of lymph fractions was determined by HPLC with a mass-sensitive, evaporative light-scattering detector. […]

In a further assay the test system is plasma lipids. Description: Plasma lipids in cholesterol-fed rats after oral PLA2 inhibitor. As to conditions: 100 mg/kg oral gavage, about 8 hours after start of feeding. The format is in vivo. The protocol: Ultimately, agents that inhibit the absorption of dietary cholesterol should suppress postprandial increases in plasma cholesterol. This was tested with several. PLA2 inhibitors in cholesterol-fed rats. The general protocol consisted of preparing a carboxymethyl cellulose/Tween 20 dispersion of the compound of interest and administering it at a dose of 100 mg/kg by oral gavage to rats previously trained to meal-feed. Immediately following administration of the inhibitor, the rats were fed a lipid-rich meal of chow supplemented with cholesterol, peanut oil, and cholic acid.

For another assay, the target named is T1, porcine pancreatic PLA2 (Sus scrofa, UniProt P00592).
T1 construct: purchased Sigma Chemical Company (St. Louis, Mo.); host or cells: porcine pancreas
Description: Fluorescence assay of porcine pancreatic PLA2 inhibition in vitro. The format is biochemical. The settings on record: porcine pancreatic PLA2, in vitro; read-out: In Vitro IC50 (porc. panc. PLA2). The text has this: The IC50 values for inhibition of porcine pancreatic PLA2, in vitro, are included for comparison with the in vivo activities.
A sensitive fluorescence method was used to measure the activity of pancreatic phospholipase A2 (PLA2) in vitro. PLA2 hydrolyzes the ester bond linking fatty acids to the sn-2 position in glycerophospholipids. Several types of PLA2 exist, including those isolated from venoms, synovial fluid, platelets, immunoactive cell types and the pancreas. The pancreatic PLA2 was the subject of this experiment because of its fundamental role in promoting lipid absorption in the intestine.
PLA2 activity was detected by the loss of pyrene excimer fluorescence that occurs when (1-pyrenyl)decanoic acid is hydrolysed from the sn-2 position of 1,2-bis-(1-pyrenedecanoyl)sn-glycero-3-phosphocholine ((P10)2 PC) by the action of PLA2. The use of similar pyrene-labeled PC substrates to detect PLA2 activity has been described previously (Radvanyi F., Jordan L., Russo-Marie F., Bon C., "A sensitive and continuous fluorometric assay for phospholipase A2 using pyrene-labeled phospholipids in the presence of serum albumin." Anal. Biochem., 177:103-109 (1989)). The full photophysical basis for the assay is described elsewhere (Birks J. B., "Photophysics of Aromatic Molecules," Wiley Interscience, New York, pp 301-371 (1970)).
In brief, pyrene excimers are formed by the complexation of one pyrene moiety in the ground-state with one pyrene moiety in the excited state to form an excited-state dimer (excimer) which fluoresces at longer wavelengths (475 nm emission maximum) than the wavelength range in which excited-state pyrene monomers fluoresce (370-400 nm). Excimer formation is dependent on the concentration of pyrene moieties. (P10)2 PC emits excimer fluorescence almost exclusively due to the fixed juxtaposition of the pyrene chromophores. The substrate concentration is sufficiently dilute so that excimer formation between the products of PLA2 action, namely lysoPY10PC and the (1-pyrenyl)decanoic acid, is insignificant.
In general, this assay scheme should have been applicable to the study of any type of PLA2. However, since pancreatic PLA2 is unique from the other PLA2 's in that it operates almost exclusively against micellized PC, the PC substrate in this assay was micellized with 1 mM deoxycholic acid. The PC component of the micelles consisted of 5 μM (P10)2 PC substrate diluted with a 99-fold excess (495 μM) of 1-oleyl-2-palmityl phosphatidylcholine (OPPC). The OPPC was inert to PLA2 hydrolysis because it contained ether-linked fatty alkyl chains in place of the ester-linked fatty acyl chains of normal PC. OPPC was included to 1) dilute the micellar (P10)2 PC concentration thereby minimizing intermolecular excimer formation, and 2) preserve the integrity of the micelles against the action of PLA2 since nonspecific micelle disruption could lead to nonlinear kinetics and fluorescence changes independent of lipolysis.
Phospholipase A2 (porcine pancreas), bovine serum albumin (BSA) (fraction V, essentially fatty acid-free) and sodium deoxycholate were obtained from Sigma Chemical Company, (St. Louis, Mo.). 1-Oleyl-2-palmityl-DL-phosphatidylcholine (OPPC) was ordered from Serdary Research Laboratories, Inc. (London, Ont., Canada). 1,2-Bis-(1-pyrenedecanoyl)-sn-glycero-3-phosphatidylcholine ((P10)2 PC) was obtained from Molecular Probes, Inc. (Eugene, Oreg.).
HEPES buffer (SHE) contained 150 mM NaCl, 20 mM HEPES (N-[2-hydroxyethyl]piperazine-N'-[2-ethanesulfonic acid]) and 1 mM EDTA (ethylenediamine tetraacetic acid) at pH 8.0.
1 mM (P10)2 PC in chloroform was prepared by adding 1 mL chloroform to a vial containing 1 mg of (P10)2 PC, as shipped by Molecular Probes. The actual concentration was determined spectrophotometrically by diluting 10 μL of the chloroform solution in 2 mL of ethanol. The absorbance spectrum of the ethanol solution was measured between 380 nm to 280 nm (Beckman DU-64). […]

T1 sequence (P00592 23-146): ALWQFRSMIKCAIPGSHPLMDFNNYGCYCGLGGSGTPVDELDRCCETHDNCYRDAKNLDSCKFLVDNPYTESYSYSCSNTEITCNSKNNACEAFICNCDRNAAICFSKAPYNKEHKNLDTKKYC

Regarding “PLA2: porcine pancreatic phospholipase A2”, the “retinol uptake and esterification” value with Caco-2 cells [1] is listed as “not affected”. In the assay with Caco-2 cells [2] (FIGS. 7 and 8), the “cellular absorption of fatty acids” value is reported as “dramatic increase”. Further, in the assay with Caco-2 cells [2] (triglyceride lipase with or without PLA2, FIG. 8), the “cellular accumulation of tritiated lipid from tri[3H]olein” value was “the greatest cellular accumulation of tritiated lipid occurred in the incubation containing both lipases together”. Further, in the assay on Caco-2 cells [2] (with or without carboxyl ester lipase and PLA2, FIG. 7), the “entry of micellar [3H]cholesteryl oleate label into cells” value is “did not enter the cells unless both carboxyl ester lipase and PLA2 were included in the incubation”. For the same compound, in the assay with Caco-2 cells [3] (6 hours, micelles with lyso-PC, or PC with PLA2), the “[3H]oleate-labeled PC synthesis relative to phospholipid-free micelles” value is recorded as “slight decrease”. For the same compound, the “cell [14C]cholesteryl ester relative to incubations without micellar phospholipid” value with Caco-2 cells [3] (12 hours, PC in the presence of PLA2) came to 60%. Also, the “cell-associated free [14C]cholesterol relative to level in the absence of PC” value with Caco-2 cells [3] (PLA2 added to PC-containing micelles) was 76%. The “suppression of cholesterol absorption by PC, effect of PLA2” value with Caco-2 cells [3] is “partially reversed the inhibitory effects of micellar PC”; in the assay with Caco-2 cells [3] (listed as pancreatic phospholipase A2) it was “reverses the suppression of cholesterol absorption and metabolism”.
On to `CC[C@H](CC[C@@H](C)[C@H]1CC[C@H]2[C@@H]3CC=C4C[C@@H](O)CC[C@]4(C)[C@H]3CC[C@]12C)C(C)C` [β-sitosterol], for which the “cholesterol absorption in hamsters” value in the assay on cholesterol absorption was “reduced”. For the same compound, the “reductions in serum cholesterol levels” value in the assay on serum cholesterol is “up to 25%”.
Take `CCCCCCCCCCCn1nnn(Cc2ccccc2)c1=N` [Compound B, 1,4-dihydro-1-(phenylmethyl)-4-undecyl-5H-tetrazol-5-imine]: the “lipid absorption in rats” value in assay [4] is reported as “reduced”. Also, in the assay with plasma lipids, the “% Change in plasma lipids vs. Control: HDL Chol.” value is 9%, the “% Change in plasma lipids vs. Control: Total Chol.” value is on record as -32% and the “% Change in plasma lipids vs. Control: non-HDL Chol.” value was -44%. At porcine pancreatic PLA2, the half-maximal inhibitory concentration (IC50) was 4 µM.
